Laboratory results reported in patent US4438117A, “2-Substituted thio-4,5-diarylpyrimidines” (E. I. Du Pont de Nemours and Company, priority 1980, dated 1984).

Assays:
phenylquinone writhing = test: Phenylquinone writhing test (analgesic activity); format: in vivo, female white mice; details: Mus musculus; oral in 1% methylcellulose, fasted mice, observed from 30 minutes after dosing for 10 minutes; effective analgesic dose for 50% of the mice; read-out: PQW ED50
Protocol: A procedure for detecting and comparing the analgesic activity of compounds in this series and standard drugs for which there is a good correlation with human efficacy is the phenylquinone writhing test.
The phenylquinone writhing test, modified from Siegmund, et al., Proc. Soc. Exp. Biol. Med. 95, 729 (1957), was employed. A test compound suspended in 1% methylcellulose was given orally to fasted (17-21 hours) female white mice, 5-20 animals per double blind test. Aqueous (0.01% phenyl-p-benzoquinone) phenylquinone was injected intraperitoneally 24 minutes later using 0.20 ml per mouse. […] The effective analgesic dose for 50% of the mice (ED50) was calculated by the moving average method of Thompson, W. R., Bact. Rev., 11, 115-145 (1947).

[1] = system: Adjuvant-Induced Arthritis in Rats; test: Established adjuvant-induced arthritis in rats (antiinflammatory activity, paw volume); format: in vivo, Charles River Lewis male rats; details: oral by gavage, that day and 6 following days; for AA % Reduction @ 27 mg/kg: % reduction in paw volume at 27 mg/kg, * p <0.05 (Examples 2, 3, 6), ** p >0.1 (Example 9) compared to control
Protocol: A procedure for detecting and comparing the antiinflammatory activity of compounds in this series and standard drugs for which there is a good correlation with human efficacy is the adjuvant-induced arthritis test in rats.
Charles River Lewis male rats (130-150 grams) are injected subcutaneously in plantar area of the right hind paw with 0.1 ml of adjuvant (Difco heat-killed, lyophilized Mycobacterium butyricum suspended in mineral oil 5 mg/ml). 20 Non-arthritic controls are injected with mineral oil. The animals are held for 2 weeks to allow development of arthritis. Paw volumes (uninjected, left hind paw) are measured and the adjuvant injected rats are culled and distributed to treatment groups of 10 of equal disease severity. Non-arthritic controls are distributed to 2 groups of 10. The rats are given oral doses of compound or PVA-Acacia (Polyvinyl Alcohol 1%, Gum Acacia, U.S.P. 5%, Methylparaben 0.5%) (10 ml/kg) by gavage on that day and on the 6 following days. One day after the last dose the paw volumes (uninjected, left hind paw) are measured using a Ugo Basile Volume Differential Meter Model 7101. [formula]
Dose-response regression lines of the % decrease are plotted on semi-log paper by visual fit and the ED50% decrease from control paw volume is determined by inspection. Alternatively, % reduction in paw volume was measured at a dose of 27 mg/kg.

SMILES	ED50 (phenylquinone writhing) [mg/kg]	AA % Reduction @ 27 mg/kg [1] [%]	ED50 ([1]; Rattus norvegicus, ED50% decrease from control paw volume, uninjected left hind paw, read-out: AA ED50) [mg/kg]
COc1ccc(-c2nc(SC(F)(F)F)ncc2-c2ccc(Cl)cc2)cc1 [Example 7]	49	0	–
Fc1ccc(-c2cnc(SC(F)(F)F)nc2-c2ccc(F)cc2)cc1 [Example 2, 2-Trifluoromethylthio-4,5-bis(4-fluorophenyl)-pyrimidine]	> 108	37	–
COc1ccc(-c2cnc(SC(F)(F)C(F)F)nc2-c2ccc(OC)cc2)cc1 [Example 1, 2-(1,1,2,2-Tetrafluoroethylthio)-4,5-bis(4-methoxyphenyl)pyrimidine]	> 108	–	25
COc1ccc(-c2nc(SC)ncc2-c2ccc(Cl)cc2)cc1 [Example 3, 2-Methylthio-4-(4-methoxyphenyl)-5-(4-chlorophenyl)-pyrimidine]	> 108	39	–
COc1ccc(-c2cnc(SC(F)(F)F)nc2-c2ccc(OC)cc2)cc1 [Example 6]	48	32	–
Fc1ccc(-c2cnc(SC(F)(F)C(F)F)nc2-c2ccc(F)cc2)cc1 [Example 4]	45	0	–
COc1ccc(-c2cnc(SC)nc2-c2ccc(OC)cc2)cc1 [Example 9]	108	16	–
